According to ChEMBL document CHEMBL1201862, “PubChem BioAssay data set” (2004):
Active and inactive are the calls of the source.

Legend:
[1] = CTGF mRNA reduction under YAP1 overexpression, dose response, mechanism study for YAP1 pathway inhibitor project, DLD1 cells, RT-qPCR, cherry-pick (AID 1053127); type: functional, cell-based; conditions: DLD-1
[2] = Dose-response inhibition of insulin secretion in a rat insulinoma line at 5 mM glucose (AID 1117331); type: functional, cell-based; conditions: INS-1E
[3] = half-maximal inhibitory concentration for glucagon-like peptide-1 release, STC-1 cell line, dose-response (AID 1117345); type: functional, cell-based
[4] = Glucagon-like peptide 1 release potency, NCI-H716 cell line, dose-response, half-maximal inhibitory concentration (AID 1117344); type: functional, cell-based
[5] = P. falciparum Dd2 growth inhibitors, dose response, SYBR Green, dry powder samples, set 9 (AID 1159568); type: functional, cell-based
[6] = HepG2 cell cytotoxicity, dose response, cytotoxicity control, luminescence plate reader, powder samples, set 2 (AID 651860); type: functional, cell-based
[7] = cells; conditions: HEK293
[8] = inhibitors of PGC1a acetylation in cells, dose response, cell-based, cherry-picked samples (AID 720514); type: functional;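 also: potency may reflect raised or lowered acetylation signal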
[9] = target: Paired box protein Pax-8 (Homo sapiens, UniProt Q06710); assay: inhibitors of PAX8-driven TPO luciferase reporter, dose response, RMG-I cells, cherry-pick (AID 687027); type: functional, cell-based;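 also: luciferase reporter driven by Pax8 target thyroperoxidase promoter measured by SteadyGlo luminescence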
[10] = IOSE-T80 ovarian epithelial cell cytotoxicity, dose response, cytotoxicity control for PAX8 inhibitor project, plate reader, dry powder samples (AID 743045); type: functional, cell-based
[11] = cytotoxicity in COV434 cells, dose response, cytotoxicity control for PAX8 inhibitor project, cell-based, plate reader, dry powder, SA7 (AID 743145); type: functional
[12] = cytotoxicity in OV-90 ovarian cancer cells, dose response, PAX8 inhibitor project, cell-based, plate reader, dry powder, SA8 (AID 743149); type: functional
[13] = cytotoxicity dependent on PAX8, dose response, cell-based, plate reader, dry powder (AID 743049); type: functional
[14] = target: RNA-editing ligase 1, mitochondrial (Trypanosoma brucei brucei, UniProt P86926); assay: TbREL1 ligase inhibitors, dose response, biochemical, fluorescence, Trypanosoma brucei (AID 1117295); type: functional
[15] = tested on: HEK293; assay: HEK293T cell cytotoxicity, dose response, cytotoxicity control, ATP luminescence, cherry-pick samples (AID 687005); type: functional, cell-based; conditions: Homo sapiens;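 also: cells exposed to compound for 48 hours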
[16] = HEK293 Cytotoxicity Assay Measured in Cell-Based System Using Plate Reader - 7071-01_Inhibitor_Dose_CherryPick_Activity_Set2.; type: functional
[17] = tested on: Saccharomyces cerevisiae; assay: NALP1 inhibitor project selectivity study, Caspase-1/ASC signal blockade IC50 in S. cerevisiae (AID 488863); type: functional, organism-based
[18] = target: NACHT, LRR and PYD domains-containing protein 1 (Homo sapiens, UniProt Q9C000); assay: NALP1 inhibitors in yeast, dose response, luminescent (AID 488860); type: functional
[19] = inhibitors of Vif binding to APOBEC3G peptide, primary screen, biochemical, TR-FRET, GST-Vif 1-94, biotin-A3G peptide, dose response retest (AID 1117319); type: functional;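 also: TR-FRET signal of purified GST-Vif binding a biotinylated A3G peptide; inhibitors lower the FRET signal by blocking Vif and A3G binding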
[20] = target: NAD-dependent protein deacylase sirtuin-5, mitochondrial (Homo sapiens, UniProt Q9NXA8); assay: SIRT5 desuccinylase inhibitors, dose response, biochemical, fluorescence imaging, cherry-pick, set 5 (AID 720591);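 also: desuccinylation of succinyl peptide AMC substrate read as fluorescence after trypsin release; potency of inhibitors that lower fluorescence and may act on trypsin instead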
NAD-dependent protein deacylase sirtuin-5, mitochondrial, sequence (Q9NXA8 whole entry): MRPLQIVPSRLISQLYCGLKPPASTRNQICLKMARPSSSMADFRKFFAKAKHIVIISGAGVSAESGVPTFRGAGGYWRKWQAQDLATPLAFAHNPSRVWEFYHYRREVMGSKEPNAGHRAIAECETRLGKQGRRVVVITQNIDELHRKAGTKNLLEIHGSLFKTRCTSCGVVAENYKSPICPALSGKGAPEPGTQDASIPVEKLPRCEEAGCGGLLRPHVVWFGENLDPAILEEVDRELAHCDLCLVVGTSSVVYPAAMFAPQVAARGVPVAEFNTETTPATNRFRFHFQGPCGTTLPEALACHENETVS

RNA-editing ligase 1, mitochondrial, sequence (P86926 whole entry): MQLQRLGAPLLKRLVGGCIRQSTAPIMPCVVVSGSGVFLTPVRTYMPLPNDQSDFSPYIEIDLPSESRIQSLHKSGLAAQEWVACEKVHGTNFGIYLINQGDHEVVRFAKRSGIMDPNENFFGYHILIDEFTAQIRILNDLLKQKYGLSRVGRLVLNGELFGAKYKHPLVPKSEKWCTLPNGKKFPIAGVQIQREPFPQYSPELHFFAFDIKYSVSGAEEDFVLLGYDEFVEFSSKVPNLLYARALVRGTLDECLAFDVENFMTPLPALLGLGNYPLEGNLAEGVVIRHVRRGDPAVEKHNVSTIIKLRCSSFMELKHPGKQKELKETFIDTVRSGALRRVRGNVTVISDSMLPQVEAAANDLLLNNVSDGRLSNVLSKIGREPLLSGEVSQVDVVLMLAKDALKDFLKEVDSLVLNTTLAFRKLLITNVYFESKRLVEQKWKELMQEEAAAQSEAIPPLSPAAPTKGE
Paired box protein Pax-8, sequence (Q06710 whole entry): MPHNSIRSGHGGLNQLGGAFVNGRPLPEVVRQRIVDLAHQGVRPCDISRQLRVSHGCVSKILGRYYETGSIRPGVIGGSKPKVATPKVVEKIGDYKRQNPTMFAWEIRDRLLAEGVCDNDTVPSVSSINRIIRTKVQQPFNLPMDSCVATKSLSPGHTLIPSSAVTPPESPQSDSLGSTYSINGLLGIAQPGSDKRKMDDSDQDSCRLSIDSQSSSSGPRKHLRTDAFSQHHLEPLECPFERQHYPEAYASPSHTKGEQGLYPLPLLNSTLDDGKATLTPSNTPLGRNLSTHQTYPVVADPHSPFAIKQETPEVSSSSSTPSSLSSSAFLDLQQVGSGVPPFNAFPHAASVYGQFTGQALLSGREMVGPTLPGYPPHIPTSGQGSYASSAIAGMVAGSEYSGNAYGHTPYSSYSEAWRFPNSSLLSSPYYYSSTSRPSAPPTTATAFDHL
NACHT, LRR and PYD domains-containing protein 1, sequence (Q9C000 1-1212 limits assumed): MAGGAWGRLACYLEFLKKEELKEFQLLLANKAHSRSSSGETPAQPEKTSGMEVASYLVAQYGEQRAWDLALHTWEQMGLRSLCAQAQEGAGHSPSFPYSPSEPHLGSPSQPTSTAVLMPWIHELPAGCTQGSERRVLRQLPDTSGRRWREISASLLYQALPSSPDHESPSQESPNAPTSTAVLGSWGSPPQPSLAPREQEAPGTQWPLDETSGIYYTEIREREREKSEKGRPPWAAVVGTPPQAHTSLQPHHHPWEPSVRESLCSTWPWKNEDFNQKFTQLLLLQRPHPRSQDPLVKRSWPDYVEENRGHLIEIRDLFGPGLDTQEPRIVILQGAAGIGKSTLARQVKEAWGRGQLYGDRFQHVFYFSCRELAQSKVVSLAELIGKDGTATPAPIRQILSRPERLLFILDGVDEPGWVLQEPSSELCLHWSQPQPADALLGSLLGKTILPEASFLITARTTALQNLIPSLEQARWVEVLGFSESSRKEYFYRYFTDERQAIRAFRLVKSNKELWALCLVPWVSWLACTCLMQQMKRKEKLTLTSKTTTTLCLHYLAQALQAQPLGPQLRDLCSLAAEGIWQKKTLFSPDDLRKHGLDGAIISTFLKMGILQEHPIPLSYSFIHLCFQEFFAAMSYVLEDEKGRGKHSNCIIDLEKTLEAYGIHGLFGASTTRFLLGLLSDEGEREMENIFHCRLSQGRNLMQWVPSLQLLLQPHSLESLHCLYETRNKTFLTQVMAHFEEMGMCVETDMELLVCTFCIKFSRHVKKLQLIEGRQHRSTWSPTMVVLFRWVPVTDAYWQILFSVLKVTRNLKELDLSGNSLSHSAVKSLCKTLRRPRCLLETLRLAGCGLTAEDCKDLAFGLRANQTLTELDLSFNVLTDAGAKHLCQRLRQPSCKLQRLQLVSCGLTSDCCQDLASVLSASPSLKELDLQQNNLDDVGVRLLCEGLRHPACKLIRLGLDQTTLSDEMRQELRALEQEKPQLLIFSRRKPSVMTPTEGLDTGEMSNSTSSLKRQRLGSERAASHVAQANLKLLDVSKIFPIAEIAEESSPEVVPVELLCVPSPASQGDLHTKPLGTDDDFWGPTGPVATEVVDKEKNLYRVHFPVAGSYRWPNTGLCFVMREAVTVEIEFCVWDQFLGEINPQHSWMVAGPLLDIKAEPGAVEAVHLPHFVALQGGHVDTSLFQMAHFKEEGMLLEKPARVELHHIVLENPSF
NACHT, LRR and PYD domains-containing protein 1, sequence (Q9C000 1213-1473 limits assumed): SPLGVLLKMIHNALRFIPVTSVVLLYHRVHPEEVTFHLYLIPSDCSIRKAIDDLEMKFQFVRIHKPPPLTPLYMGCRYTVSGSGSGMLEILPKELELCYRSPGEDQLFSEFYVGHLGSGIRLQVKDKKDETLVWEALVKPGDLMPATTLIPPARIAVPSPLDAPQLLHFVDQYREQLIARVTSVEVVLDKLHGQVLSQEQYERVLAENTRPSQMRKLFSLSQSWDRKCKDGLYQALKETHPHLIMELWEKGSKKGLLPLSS

## O=C(Cc1ccncc1)N1CCCCN2[C@H](CO)[C@@H](c3ccc(C#Cc4ccccc4F)cc3)[C@@H]2C1
[1]
  AC50: 24.8 µM (active)

## O=C(O)C1CCC1
[2]
  IC50: > 33.3 µM (inactive)
[3]
  IC50: > 40 µM (inactive)
[4]
  IC50: > 40 µM (inactive)

## CC(C)CC#Cc1ccc([C@@H]2[C@H]3CN(C(=O)Nc4ccccc4)CCCCN3[C@H]2CO)cc1
[5]
  AC50: 2.67 µM (active)

## O=C(O)C1CCCCC1C(=O)Nc1ccccc1CN1C(=O)c2ccccc2C1=O (stereo not given)
[6]
  AC50: > 52 µM (inactive)

## CC(C)CCN(CCC(C)C)CC(O)Cn1c2ccccc2c(=O)c2ccccc21 (stereo not given)
[7]
  AC50: > 52 µM (inactive)

## O=C1CN(S(=O)(=O)Cc2ccccc2)C[C@@H]2[C@@H](c3ccc(C#Cc4cccc(F)c4)cc3)[C@@H](CO)N12
[8]
  AC50: 21.6 µM (active)

## CC1(C)CC(=O)c2sc(NC(=O)CCS(=O)(=O)c3ccccc3)nc2C1
[9]
  AC50: 3.16 µM (active)
[10]
  AC50: 69.9 µM (active)
[11]
  AC50: 22.9 µM (active)
[12]
  AC50: 86.7 µM (active)
[13]
  AC50: 11.9 µM (active)

## COC(=O)C1=C(C)N(Cc2cccc(C(F)(F)F)c2)C(NCc2ccc(C(F)(F)F)cc2)=NC1c1ccccc1C(F)(F)F (stereo not given)
[14]
  IC50: > 96.6 µM (inactive)

## CC(C)N1C(=O)C2(OCCCO2)c2cc(Br)ccc21
[15]
  AC50: 13 µM (active)
[16]
  AC50: 13 µM (active)

## Cc1sc(-c2ccncc2)nc1OC(=O)c1ccccc1
[17]
  IC50: 56.9 µM (active)
[18]
  IC50: 23.1 µM (active)
[19]
  IC50: > 100 µM (active)

## C[C@@H]1CN([C@@H](C)CO)C(=O)c2cc(Br)cnc2O[C@H]1CN(C)Cc1cccnc1
[20]
  AC50: > 30 µM (inactive)
